Results published in US9914709B2, “Compositions and methods of treating HIV-1 infections using same” (YALE UNIVERSITY, priority 2013, dated 2018).
Converted amounts (≈) assume the structure as drawn. Where two headings read alike, the source gives them in different places. Marks after values point to notes of the source that are not given here. One block for each compound: values may come before it.

Key:
[1] = cited from earlier work; for aqueous solubility: literature values
[2] = system: HIV-1 K103N/Y181C variant; experiment: microbe, parasite or virus in culture; type: cell-based
HIV-1 Y181C variant [3] = details: MT-4 cells; Janssen 2005 / Ludovici 2001; read-out: previously reported EC50, Y181C; cited from earlier work
[4] = system: HIV-1 K103N/Y181C variant; details: MT-4 cells; Janssen 2005 / Ludovici 2001; read-out: previously reported EC50, K103N/Y181C; cited from earlier work
HIV-1 Y181C variant [5] = experiment: microbe, parasite or virus in culture; type: cell-based
MT-2 human T-cells = experiment: Cytotoxicity, inhibition of MT-2 cell growth; details: read-out: cytotoxicity (CC50); Table 4; human MT-2 cells
wild-type HIV-1 = details: MT-4 cells; Janssen 2005 / Ludovici 2001; read-out: previously reported EC50, wild-type; cited from earlier work
[6] = Aqueous solubility, shake-flask method with UV detection
Procedure: The compounds were dissolved in Britton-Robinson buffer and stirred in vials for 48 hours at 25° C. The pH of the buffer solutions was measured by a Corning General Purpose pH Combination probe (4136L21).
For measurement of aqueous solubility, the pH of the buffer solutions was measured by Corning Combination pH Electrodes (4136L21) pH meter with Ag/AgCl glass electrode. […] An Ika® RCT basic magnetic stirrer was used to mix the two phases.
The equilibrium solubility of the non-ionized form of the samples was determined by the shake flask method. For each reported solubility result, two or three independent shake-flask experiments were carried out in parallel. For each experiment the 5 mg of the solid was added to 5 mL of the buffer in a vial. […] The standards and samples were measured by UV spectrophotometry at the maximum wavelength of the individual compounds.

[7] = Cytotoxicity, inhibition of MT-2 cell growth; details: human
[8] = system: IIIB strain of HIV-1 (wild-type); experiment: Anti-HIV-1 activity, MT-2 cells infected with wild-type HIV-1 (IIIB), MTT method; type: cell-based; details: Human immunodeficiency virus 1, IIIB, MT2, read-out: EC50 WT
in vitro = details: human
[9] = Aqueous solubility, literature reports; type: physicochemical; details: translated from 20 ng/mL at pH 7.0
[10] = Human immunodeficiency virus 1, MT2, read-out: EC50 K103N/Y181C
[11] = Human immunodeficiency virus 1, MT2, read-out: EC50 Y181C

Compound: Cc1cc(C#N)cc(C)c1Oc1nc(Nc2ccc(C#N)cc2)nc(N)c1Br [etravirine]
Aqueous Solubility (S) ([1]; Table 5, literature values (Morelock 1994; Weuts 2011)): <<1^b μg/mL
aqueous solubility [1]: lower than 1 μg/mL

Compound: Cc1cc(C)c(Nc2ccnc(Nc3ccc(C#N)cc3)n2)c(C)c1 [Compound 10a, dapivirine, reference compound]
EC50 ([2]; Human immunodeficiency virus 1, MT2, read-out: EC50, K103N/Y181C variant): 0.039 µM
EC50 [2, 10]: 0.039 µM
EC50 (HIV-1 Y181C variant [3]): 0.007 µM
EC50 [4]: 0.054 µM
EC50 (HIV-1 Y181C variant [5]; Human immunodeficiency virus 1, MT2, read-out: EC50, Y181C variant): 0.039 µM
EC50 (HIV-1 Y181C variant [5]; [11]): 0.039 µM
CC50 (MT-2 human T-cells): 2 µM
EC50 (wild-type HIV-1): 0.0012 µM

Aqueous Solubility (S) ([6]; shake-flask, 25° C.): 7.2 µg/mL
Compound: CN1C(C(=O)Nc2ccccn2)=C(O)c2ccccc2S1(=O)=O [Piroxicam, reference compound]
aqueous solubility [1]: 6.4 µg/mL (≈ 19.3 µM)

Compound: CC(C)=CCOc1cc(NC(=S)c2ccoc2C)ccc1Cl [UC-781]
solubility ([1]; Yang et al. 2008): < 0.03 µg/mL

Compound: Cc1ccnc2c1NC(=O)c1cccnc1N2C1CC1 [nevirapine]
CC50 (MT-2 human T-cells): > 100 µM
CC50 [7]: > 100 µM

Compound: Cc1cc(/C=C/C#N)cc(C)c1Nc1cc(OCCCN2CCOCC2)nc(Nc2ccc(C#N)cc2)n1 [Compound 5c, (E)-4-((4-((4-(2-cyanovinyl)-2,6-dimethylphenyl)amino)-6-(3-morpholinopropoxy)pyrimidin-2-yl)amino)benzonitrile]
EC50 [2, 10]: 0.003 µM
EC50 [8]: 0.0037 µM
EC50 (HIV-1 Y181C variant [5]; [11]): 0.015 µM
solubility at 48 h ([6]; 25 °C, pH 6.5, aqueous buffer, thermodynamic from solid): 2 µg/mL
CC50 (in vitro): 6.4 µM

Compound: Cc1cc(/C=C/C#N)cc(C)c1Nc1ccnc(Nc2ccc(C#N)cc2)n1 [rilpivirine, reference compound]
S [9]: 50 nM
